“Also recorded” adds a separate entry of the source.
Assays:
[1] = tested on: mice with adenine-induced chronic kidney disease; test: adenine diet-induced CKD in mice, 6 weeks: body weight, renal function, mineral metabolism, histology; format: in vivo, mouse (female CD1)
Experimental: FIGS. 1A-1E. […] (A) Study design: Female CD1 mice (n=8/group) were treated with control or 0.2% adenine diet starting at 6 weeks of age along with vehicle or SK-124 (40 mg/kg) treatment by oral gavage once daily. Bottom: body weight of mice in the indicated treatment groups. […] (B, C) After 6 weeks of treatment, the indicated analytes were measured in fasting serum or urine. […] (D) H+E-stained kidney sections were assessed on a blinded basis by a pathologist for tubulointerstitial damage. (E) Whole kidney RNA from the indicated groups was analyzed by RT-qPCR for the indicated proximal tubule marker gene. For all panels in all figures, 1-way ANOVA was performed with Dunnett's posthoc analysis to analyze differences between treatment groups, p values less than 0.05 are shown in graph.
(§1) 7-week-old female CD1 mice were obtained from Charles River Laboratories (Wilmington, MA) and were fed on 0.2% adenine containing diet (TD.130900; 0.2% Adenine, 0.9% Phosphate, 0.5% Calcium; Envigo) or control diet (TD. 96348) for 6 or 8 weeks to induce chronic kidney disease (CKD). Mice were oral gavaged with 40 mg/kg SK-124, or intraperitonially injected with 80 μg/kg PTH, or treated with vehicle 5 days a week for the duration of the special diet.
For studies with Ubiquitin-Cre^ERt2; Sik2^ff; Sik3^ff mice (JAX #007001 for Ubiquitin-Cre^ERt2: RRID:MGL:5905012 for Sik2 foxed mice; and Sik3^tmla(EUCOMM)Hmgu mice (RRID:MGI:5085429) bred to PGK1 FLPo mice (JAX #011065) in order to generate Sik3 foxed mice), tamoxifen was injected (1 mg, IP, Q48 hours, 3 injections total) in all animals including Cre-negative control littermates housed in cages with Pure-o′Cel bedding at 5 weeks of age. Mice were then fed on 0.2% adenine diet from 6 weeks to 9 weeks of age. Mice were fasted for 6 hours and treated with SK-124 and PTH 4 hours and 2 hours before the sacrifice. Blood and spot urine samples were collected by cheek pouch bleeding and by pipetting urine collected on hydrophobic sand (Labsand; Braintree, MA). Kidneys were immediately snap-frozen in liquid nitrogen for TRIzol (Life Technologies)-Chloroform (Fischer Scientific) based RNA isolation or protein isolation, or fixed in 10% formalin at 4C for 24 hrs for histology. All serum and urine measurements were performed using commercial bioassay detection reagents listed in Table 1, following the manufacturers' instructions. Urine protein levels were measured by Bradford assay and normalized to urine creatinine.

[2] = tested on: renal fibrosis, adenine-induced CKD mice; test: renal fibrosis in adenine CKD mice (trichrome, immunoblot, RT-qPCR); format: in vivo, mouse
Experimental: FIGS. 3A-3C. SK-124 treatment reduces fibrosis in adenine-induced chronic kidney disease. (A) Representative trichrome stained sections from the indicated groups. Darker staining indicates fibrosis which is increased in vehicle-treated adenine diet mice and reduced by SK-124 treatment. (B) Kidney protein lysates were isolated and analyzed by immunoblotting for alpha-smooth muscle actin (αSMA) (top) and GAPDH (bottom). (C) Whole kidney RNA from the indicated groups was analyzed by RT-qPCR for the indicated fibrosis marker.
as §1
cDNA was prepared using Primescript RT kit (Takara Inc), with 750 ng RNA per reaction. RT-qPCR was performed by using PerfeCa® SYBR® Green FAstMix® ROX (Quanta bio) in the StepOnePlus™ Real-time PCR System (Applied Biosystems). Hmbs was used as a control housekeeping gene for mouse samples, and B-Actin was used for organoids, relative expression was calculated (2^-deltaCT method) and compared to the mean of control group if necessary. Primers used for RT-qPCR are listed in Table 2 (mouse primers) and Table 3 (human primers).
Snap-frozen kidneys were homogenized in NP-40 lysis buffer (FNN0021, Thermo) with using TissueLyserII at 30 Hz for 5 minutes. Samples were rotated at 4 deg for 20 minutes and frozen on dry ice and thawed. After centrifuging for 30 minutes at 4 deg, the supernatants were collected. After determining the protein concentration by Bradford assay, […] of protein was loaded for western blotting. For KGli cells, the cells were washed with cold PBS then scraped into TNT buffer (Tris-NaCl-Tween buffer, 20 mM Tris-HCl pH 8, 200 mM NaCl, 0.5% Triton X-100 containing 1X-protease inhibitor cocktail (Bimake Inc. 100X, Cat. #B14001), 1 mM DTT, 1 mM NaF, 1 mM Vanadate (New England Biolabs)). Next, samples were vortexed for 1 minute and centrifuged at 14,000g for 6 minutes at 4 deg, and the supernatant was collected.
For immunoblotting, the lysates were separated by SDS-PAGE (Bio-rad precast gels), and proteins were transferred to the nitrocellulose membranes. Then, the membranes were blocked in 5% milk in tris-buffered saline plus 0.05% Tween-20 (TBST) and incubated with primary antibody in 5% BSA-TBST overnight at 4° C. Next day, after washing, membranes were incubated with anti-rabbit HRP-coupled secondary antibody (1:2500, Cell Signaling Technology, 7074S) or anti-mouse HRP-coupled secondary antibody (1:2500, Cell Signaling, 7076S), and signals were detected with SuperSignal West Femto Maximum Sensitivity Substrate (Thermo scientific) using the iBright imager (ThermoFisher). The antibodies used are: SIK2 (1:1000, Cell Signaling, 6919), GAPDH (1:1000, Cell Signaling, 2118), αSMA (1:1000, Invitrogen, 14-9760-82), pSMAD3 (1:1000, Cell Signaling, 9520), and SMAD⅔ (1:1000, Cell Signaling, 8685).
Hematoxylin and eosin (H+E) staining was performed on some sections using standard protocols and Masson's Trichome stain for fibrosis was performed according to the manufacturer's instructions (ab150686, abcam). Formalin-fixed paraffin embedded sections were also used for in situ hybridization according to the manufacturer instructions (ACDbio). Briefly, the sections were blocked with hydrogen peroxide for 10 minutes at room temperature, followed by antigen retrieval with Pepsin (R2283, Sigma-Aldrich) in humidified chamber in 40° C. HybEZ oven. The Sik1 (526411, ACD), Sik2 (526421, ACD), or Sik3 (526431, ACD) probe was added to the sections for 2 hours in the humidified chamber at 40° C. Then, the signal was amplified (322310, ACD) and detected using Brown DAB kit (322310, ACD). […]

bone and kidney = bone and kidney (ref. 7); cited from earlier work
[3] = 0.2% adenine diet, 6 weeks, SK-124 40 mg/kg oral

## CCc1nnc(-c2c(OC)cc(-c3cnc4cc(-c5cnn(C)c5)ccn34)cc2OC)o1 [SK-124, 2-[2,6-Dimethoxy-4-[7-(1-methylpyrazol-4-yl)imidazo[1,2-a]pyridin-3-yl]phenyl]-5-ethyl-1,3,4-oxadiazole]
[1]; [3]
  BUN: reduced
  creatinine: reduced
  cystatin C: reduced
  hyperphosphatemia: improved
  increased FGF-23: improved
  proteinuria: reduced
  secondary hyperparathyroidism: improved
[1]; 0.2% adenine diet, 6 weeks, SK-124 40 mg/kg oral gavage once daily, 40 mg/kg
  body weight: CKD-induced weight loss is prevented; also recorded: improved body weight
[1]; 0.2% adenine diet, 6 weeks, SK-124 40 mg/kg oral, 40 mg/kg
  renal (kidney) function and overall health: improves renal function; also recorded: dramatic improvements in renal function and overall health; also recorded: restores kidney function
[1]; H+E-stained kidney sections, blinded pathologist
  tubule-interstitial damage: reduced tubule-interstitial damage
[1]; after 6 weeks of treatment, SK-124 40 mg/kg oral
  CKD-induced changes of analytes in fasting serum or urine: All CKD-induced changes were prevented
[2]; adenine diet, SK-124 40 mg/kg oral, 40 mg/kg
  fibrosis (trichrome staining): reduced fibrosis
[2]; kidney lysates, immunoblot
  αSMA protein: reduced
[2]; whole kidney RNA, RT-qPCR
  Colla1 mRNA: reduced
  Vimentin (Vim) mRNA: reduced
  αSMA mRNA: reduced
Bone and kidney
  PTH-like effects in vivo: PTH-like effects in vivo in bone and kidney
